Results on one substance are retold here after patent US20090137492A1 (priority 2006, published 2009).

Where “and” joins values, the source holds several entries; their conditions need not be identical. Equal entries are not always repeated. Entries after “also recorded” stand apart in the source; their conditions may differ.

Data set [1] deals with IL-6. Also noted: species or system cotton rat. Conditions: rat, in vivo.
In data set [2] the test system is IL-10. The class given is cell-based.
The test system of data set [3] is IL-1beta, IL-6, IL-10, TNF-alpha, Toll-Like Receptors (TLRs), NODs, SOCS. In kind it is cell-based.
The subject of data set [4] is H3N2/Wuhan influenza virus. Further details: species or system cotton rat. Conditions: rat, in vivo.
The test system of data set [5] is IL-1beta. The class given is cell-based.
The conditions of data set [6]: mouse, in vivo.
The test system of data set [7] is anthrax spores. Also noted: species or system murine (A/J mice). The conditions noted are these: mouse, in vivo.
Data set [8] concerns B. anthracis Sterne spores. Also noted: species or system Mice of the A/J strain. Conditions: mouse, in vivo.

For the substance “Sar^9, Met(O2)^11-Substance P [Viprovex]”, in data set [1], the “IL-6 levels in the lungs” value is given as “do not significantly increase”; the “Il-6, single animals” value was 1.623 and 1.253 and 2.458 and 2.167 and 3.013 and 0 and 2.416 and 7.483 and 1.791. Moreover, in data set [2], the “IL-10 mRNA increase relative to IL-6 increase” value amounted to 21 ×. The “elevation of components of the host immune system” value in data set [3] was “elevation of cytokines, interleukins, TLR, defensins and other components of immune surveillance; also recorded: elevate multiple components of the host immune system”. In data set [4], the “efficacy against influenza virus infection” value was “provides therapeutic efficacy in animal models of infection by influenza virus; also recorded: more resistant to the effects of H3N2/Wuhan influenza virus”. Moreover, in data set [5], the “IL-1 mRNA increase relative to IL-6 increase” value is on record as 28 ×. For the same substance, the toxicity result in data set [6] is “no toxicity was observed”. In data set [7], the “increase in survival rates” value is 240%; the “protection against anthrax-induced death” value is “partially protect against anthrax-induced death”; the “protection from death, time course” value is recorded as “clearly protected from death as early as 5 days post-exposure; also recorded: maintained survival from approximately day 10 onward”; the survival rate is 68.8% and 62.5%. The “survival, of the animals that would otherwise have died” value in data set [7] is 20-70%. In addition, in data set [8], the inhibition of lethality entry is listed as “dose dependent inhibition of lethality” and the “treated animals that died” value is 2 of the 6.
